Reference: patent US7186879B2, “Screening systems and methods for identifying modulators of xenobiotic metabolism” (Baylor College of Medicine, priority 2001, dated 2007)
Entries after “also recorded” stand apart in the source; their conditions may differ. One block for each compound: values may come before it.

What was measured:
[1] = test system: wild-type and CAR knockout mice; assay: APAP toxicity after pretreatment with inducers (serum ALT, histology); format: in vivo, mouse; settings: mouse, in vivo
Description: (§1) CAR (+/+) or CAR (−/−) animals pretreated with phenobarbital (PB), TCPOBOP (TC), or vehicle alone were administered a 250 mg/kg dose of APAP by intraperitoneal injection (n=5–7 per treatment group) (FIG. 11A). Serum was collected and alanine aminotransferase (ALT) levels were measured after 24 hours. Liver sections from different treatments were examined by histological staining (FIG. 11B). Liver samples from all treated animals were analyzed but only representative histology is presented. […] CAR (+/+) or CAR (−/−) animals were pretreated with PB, TCPOBOP (TC), or vehicle alone for three days (FIG. 11C). […] Liver samples treated as indicated were collected two hours after APAP and GSH levels were measured (n=5–7) (FIG. 11D).
The effect of PB and the potent CAR agonist TCPOBOP on APAP toxicity was examined in wild-type and CAR knockout mice. Both strains of mice were treated with inducers or the vehicle control, followed by 250 mg/kg APAP. For these studies, mice were kept in a pathogen-free animal facility under standard 12 hour light/12 hour dark cycle and fed standard rodent chow and water ad libitum. At least five mice between 8 and 10 weeks old were used in each treatment group. For 3-day PB (100 mg/kg) treatment, mice were injected intraperitoneally three times, one injection per day. TCPOBOP (3 mg/kg) and/or APAP were injected intraperitoneally. Phenobarbital and TCPOBOP were suspended or dissolved in corn oil, and APAP was dissolved in basic PBS (pH=11). PB and APAP were purchased from Sigma (St Louis, Mo.); TCPOBOP was a gift from Dr. Stephen Safe.
For histologic examination of the treated mice, the left lobe of the livers was removed and immediately fixed in 4% formaldehyde-PBS solution, embedded in paraffin, sectioned at 5 μm, and stained with hematoxylin and eosin. Samples were examined under a light microscope. For RNA studies, total RNA was extracted using TRIzol Reagent (Invitrogen Life Technologies, Carlsbad, Calif.) according to the manufacture's instruction. Equivalent amount of RNA from 3–5 mice were pooled and 10 μg of each sample was subjected to northern blot analysis. […] Preparation of probes for CYP2B10 and CYP3A11 were described as previously (Wei et al., Nature 407:920–923, 2000 and Zelko et al., Mol Cell Biol 21:2838–2846, 2001). PCR primers used were: CYP1A2: 5′-[…]-3′ (SEQ ID NO: 19) and 5′-[…]-3′ (SEQ ID NO: 20), CYP2E1: 5′-[…]-3′ (SEQ ID NO: 21) and 5′-[…]-3′ (SEQ ID NO: 22), GSTPi: 5′-[…]-3′ (SEQ ID NO: 23) and 5′-[…]-3′ (SEQ ID NO: 24). Hepatic non-protein thiol was measured as an indication of hepatic GSH content. Mice were sacrificed two hours after intraperitoneal injection with APAP. Livers were removed and immediately homogenized in four volumes of 5% trichloroacetic acid and then centrifuged at 1,600×g for 15 minutes. Supernatant (0.5 ml) was mixed with 1.5 ml 0.1 mM Ellman's reagent [5,5′-dithio-bis(2-nitrobenzoic acid)] (Sigma, St Louis, Mo.) and allowed to stand at room temperature for 15 minutes. Absorbance was read at 412 nm using GSH solutions as quantitative standards.

PXR = target: T1, PXR (Mus musculus, UniProt O54915); settings: cited from earlier work
T1 sequence (O54915 1-431): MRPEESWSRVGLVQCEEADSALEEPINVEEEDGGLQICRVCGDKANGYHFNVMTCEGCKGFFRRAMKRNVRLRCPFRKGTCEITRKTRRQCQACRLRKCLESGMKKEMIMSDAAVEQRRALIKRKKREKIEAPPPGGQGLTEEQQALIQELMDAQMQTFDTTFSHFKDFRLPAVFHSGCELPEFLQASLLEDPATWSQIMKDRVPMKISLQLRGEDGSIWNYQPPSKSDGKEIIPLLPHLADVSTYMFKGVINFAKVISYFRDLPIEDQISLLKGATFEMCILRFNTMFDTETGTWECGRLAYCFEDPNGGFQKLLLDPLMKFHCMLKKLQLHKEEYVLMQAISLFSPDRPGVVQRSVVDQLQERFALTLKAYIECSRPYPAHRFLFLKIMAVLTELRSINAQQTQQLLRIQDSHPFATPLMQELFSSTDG

[2] = test system: CYP2E1, CYP1A2, CYP3A11, GSTPi; assay: Northern blot of APAP metabolizing genes in liver of wild-type and CAR null mice; settings: mouse, in vivo, 500 mg/kg, 2 h
Description: as §1, with “Serum was collected and alanine aminotransferase (ALT) levels were measured after 24 hours.” left out
CAR (+/+) and CAR (−/−) animals were given 250 mg/kg, 500 mg/kg, or 800 mg/kg doses of APAP, respectively (FIG. 12A). […] Total liver RNA was prepared from 500 mg/kg APAP treated CAR (+/+) and CAR (−/−) livers at 0 and 2 hours as indicated. […] The same blot was stripped and re-probed with β-actin as loading control.
For histologic examination of the treated mice, the left lobe of the livers was removed and immediately fixed in 4% formaldehyde-PBS solution, embedded in paraffin, sectioned at 5 μm, and stained with hematoxylin and eosin. Samples were examined under a light microscope. For RNA studies, total RNA was extracted using TRIzol Reagent (Invitrogen Life Technologies, Carlsbad, Calif.) according to the manufacture's instruction. Equivalent amount of RNA from 3–5 mice were pooled and 10 μg of each sample was subjected to northern blot analysis. […] Hepatic non-protein thiol was measured as an indication of hepatic GSH content. Mice were sacrificed two hours after intraperitoneal injection with APAP. […] Supernatant (0.5 ml) was mixed with 1.5 ml 0.1 mM Ellman's reagent [5,5′-dithio-bis(2-nitrobenzoic acid)] […] Absorbance was read at 412 nm using GSH solutions as quantitative standards.

murine CAR receptor [3] = target: T2, murine CAR receptor (Mus musculus, UniProt O35627); assay: Ligand activity on murine CAR receptor
T2 sequence (O35627 1-358 M138L): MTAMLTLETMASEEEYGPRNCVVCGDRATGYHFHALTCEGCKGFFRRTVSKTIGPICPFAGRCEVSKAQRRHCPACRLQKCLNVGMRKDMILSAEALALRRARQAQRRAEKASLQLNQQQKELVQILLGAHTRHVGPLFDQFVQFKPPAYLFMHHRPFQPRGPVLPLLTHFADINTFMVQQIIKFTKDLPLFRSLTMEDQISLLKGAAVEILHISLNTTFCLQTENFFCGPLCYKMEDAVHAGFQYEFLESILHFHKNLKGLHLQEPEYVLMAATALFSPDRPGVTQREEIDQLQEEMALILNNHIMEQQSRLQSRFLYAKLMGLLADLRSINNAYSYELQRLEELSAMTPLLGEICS

human CAR [4] = target: T3, human CAR (Homo sapiens, UniProt Q14994); assay: Northern blot of gene induction in CAR humanized mice; settings: 500 mg/kg
T3 sequence (Q14994 1-348 isoform Q14994-2): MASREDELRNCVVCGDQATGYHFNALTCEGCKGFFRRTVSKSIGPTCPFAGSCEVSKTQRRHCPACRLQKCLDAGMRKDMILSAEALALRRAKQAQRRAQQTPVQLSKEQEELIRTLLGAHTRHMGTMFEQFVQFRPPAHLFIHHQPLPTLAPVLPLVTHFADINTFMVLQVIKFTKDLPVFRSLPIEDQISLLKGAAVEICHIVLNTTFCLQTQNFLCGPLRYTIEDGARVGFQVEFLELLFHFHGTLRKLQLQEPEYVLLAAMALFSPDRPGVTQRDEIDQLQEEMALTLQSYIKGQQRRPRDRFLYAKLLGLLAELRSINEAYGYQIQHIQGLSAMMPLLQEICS
Description: CAR humanized mice (n=3) were treated with 500 mg/kg APAP or vehicle. After two hours, total liver RNA was prepared and subjected to Northern blot analysis with indicated probes.

CAR [5] = target: T4, CAR (Mus musculus, UniProt O35627, M138L); assay: Hepatoprotection after APAP (serum ALT, histology); settings: for protective effect, androstanol compared with N-acetylcysteine: wild-type mice, one and three hours after APAP 500 mg/kg, androstanol 100 mg/kg, N-acetylcysteine 1 g/kg
T4 sequence (O35627 1-358 M138L): T2 sequence (O35627 1-358 M138L)
Description: (§2) Wild-type mice (n=3 per group) were administered a 500 mg/kg dose of APAP by intraperitoneal injection.
(§3) For comparison, N-acetylcysteine (1 g/kg, purchased from Sigma and dissolved in PBS) was administered intraperitoneally to other mice.

CAR [6] = target: T5, CAR (Mus musculus, UniProt O35627); assay: Hepatoprotection after APAP (serum ALT, histology)
T5 sequence (O35627 1-358 M138L): T2 sequence (O35627 1-358 M138L)
Description: as §2, §3

CAR [7] = assay: Hepatoprotection after APAP (serum ALT, histology)
Description: as §2, §3

human CAR [8] = target: T3, human CAR; settings: cited from earlier work
murine CAR receptor [9] = target: T6, murine CAR receptor (Mus musculus, UniProt O35627, M138L); settings: cited from earlier work
T6 sequence (O35627 1-358 M138L): T2 sequence (O35627 1-358 M138L)

[10] = test system: wild-type and CAR null mice; settings: mouse, in vivo
Description: To rule out the possibility that the CAR knockout animals are somehow resistant to NAPQI, the metabolite was directly injected into the livers of both wild-type and CAR null mice, and serum ALT levels were increased 5 to 10 fold in both. Thus, that both increased NAPQI production and GSH depletion may contribute to xenobiotic induced APAP toxicity.

[11] = CAR humanized mice, two hours, densitometry

Structure (SMILES): CC(=O)[C@H]1[C@H](C#N)C[C@H]2[C@@H]3CC=C4C[C@@H](O)CC[C@]4(C)[C@H]3CC[C@@]21C [PCN, 5-pregnen-3b-ol-20-one-16a-carbonitrile]
sensitivity to APAP [1]: increase in sensitivity to APAP comparable to that observed with TCPOBOP pretreatment
PXR agonism (PXR): strong PXR agonist

induction of CYP1A2 mRNA [2]: approximately 2.8 fold
induction of CYP3A11 mRNA [2]: ~4.4 fold
induction of GSTPi mRNA [2]: ~3.9 fold
activation of human CAR (human CAR [4]; CAR humanized mice): human CAR is activated by APAP
induction of CYP1A2 mRNA (human CAR [4]; [11]): 1.8 fold
induction of CYP3A11 mRNA (human CAR [4]; [11]): 2.4 fold
induction of GSTPi mRNA (human CAR [4]; [11]): 1.8 fold
expression of CYP1A2, CYP3A11 and GSTPi (human CAR [4]; humanized mice): increased expression
Structure (SMILES): CC(=O)Nc1ccc(O)cc1 [APAP, N-acetyl-p-aminophenol]
CAR agonist function (murine CAR receptor [3]): neither APAP nor NAPQI functions as a CAR agonist

Structure (SMILES): CC(=O)N[C@@H](CS)C(=O)O [N-acetylcysteine]
protective effect, androstanol compared with N-acetylcysteine (CAR [5]): very similar

Structure (SMILES): C[C@@]12CCC[C@H]1[C@@H]1CC[C@H]3C[C@H](O)CC[C@]3(C)[C@H]1CC2 [androstanol, 5α-androstan-3α-ol]
APAP toxicity after pretreatment (CAR [6]; wild-type mice): decreases APAP toxicity
serum ALT, treatment three hours after APAP (CAR [6]; wild-type mice relative to untreated wild-type): somewhat lower serum ALT levels
hepatotoxicity, treatment one hour after APAP (CAR [6]; wild-type mice, APAP 500 mg/kg, androstanol 100 mg/kg i.p.): blocked hepatotoxicity; also recorded: nearly complete absence of hepatotoxicity
protective effect, treatment five hours after APAP (CAR [5]; relative to wild-type control): no protective effect
protective effect, androstanol compared with N-acetylcysteine (CAR [5]): very similar
hepatotoxicity, treatment after APAP (CAR [7]; CAR knockout animals, APAP 500 mg/kg, androstanol 100 mg/kg i.p.): did not block toxicity
serum ALT, androstanol and APAP versus APAP alone (CAR [7]; CAR −/− animals): somewhat higher
ALT levels, CAR (+/+) versus CAR (−/−) animals (CAR [7]; androstanol at one and three hours after APAP 500 mg/kg): significantly lower ALT levels
activity on human CAR receptor (human CAR [8]): not human CAR
activity on murine CAR receptor (murine CAR receptor [9]): can be blocked

Structure (SMILES): Clc1ccccc1C(c1ccccc1)(c1ccccc1)n1ccnc1 [clotrimazole]
activity on human CAR receptor (human CAR [8]): inverse agonist of human

Structure (SMILES): CC(=O)N=C1C=CC(=O)C=C1 [NAPQI, N-acetyl-p-benzoquinone imine]
increase of serum ALT levels [10]: 5-10 fold
CAR agonist function (murine CAR receptor [3]): neither APAP nor NAPQI functions as a CAR agonist
